In patent US20030118584A1, “Restoration of platelet aggregation by antibody administration after GPIIB/IIIa antagonist treatment” (G.D. Searle & Co., priority 1998, published 2003):

Tests used:
[1] = system: heparinized human whole blood; assay: Activated clotting time (ACT) in heparinized human whole blood; format: cell-based; conditions: 1.4 Units/mL heparin; varying concentrations; FIG. 1
Source text: This process can be used to calculate a standardized concentration curve for various known concentrations of anti-platelet compounds. The process can also be used to measure activated clotting times for use in calculating the ACT number for the processes of the invention.
A. Blood was drawn from a human volunteer into a syringe containing heparin. The heparin to whole blood ratio was 1:10 such that the final concentration of heparin in the syringe was 1.4 Units/mL.
B. The Hemochron™-8000 was set up to run ACT using the P-215 tubes from the same manufacturer (International Technidyne).
A. A 1 mL sample of the above heparinized blood was admixed and maintained (incubated) with 2.5-10 μl of antagonist compound or saline for 5 minutes at room temperature.
B. The Hemochron™ was started as 400 μl of the test sample was pipetted into the P-215 tube. The tube contents were gently mixed, placed into the Hemochron™ and turned one revolution until the light on the instrument came on.
C. Step B was repeated for the second channel of the instrument within 30 seconds to give an average activated clotting time. […]
The activated clotting time was first measured (in seconds) for control whole blood from each donor containing only 1.4 Units/mL of heparin. The clotting times were then measured as in Example 1 by varying concentrations of antiplatelet compounds B and D in addition to heparin for each donor. […]

[2] = Elimination of compounds B and D from the circulation; format: in vivo; conditions: for Route of removal from the circulation: in vivo; for Change in elimination half-life with decreased creatinine clearance: renal impairment
Source text: In renally impaired patients, reversal of the functionality of these compounds would be especially useful in an emergency situation where rapid removal of active compound is desired.

GPIIb/IIIa = GPIIb/IIIa (Homo sapiens, UniProt P05106+P08514); conditions: when administered; cited from earlier work
platelet aggregation = system: platelet aggregation; set-up: dose or concentration left out as unconfirmed; conditions: anesthetized dogs; for up to 210 minutes; cited from earlier work
[3] = Total and free plasma levels of compound B in dog (HPLC); format: in vivo; conditions: throughout the three bolus infusions of Mab 9F7, FIG. 11
Description: In a second study, a dog was treated with a capsule of 10 mg of compound A, BID for 4 days (15 mg on day 3) prior to antibody testing. […] Four hours after the last oral dose of compound A, a dose of pentobarbitol and the monoclonal […] antibody (P187-9F7) was infused by a i.v. bolus injection. Each bolus contained a 5-fold molar excess over drug plasma levels (about 50 mg of Mab 9F7). A control dog was given identical amounts of antibody without compound A oral dosing. Blood samples were collected for aggregation assays at 5, 15, 30 and 60 minutes after each bolus administration of antibody, plasma levels of Mab 9F7, and total and free plasma levels of compound B.
This method involves the extraction of compound B and an internal standard (compound F, shown hereinafter) from acidified dog plasma with a C18 solid phase extraction column. Analysis is by reverse phase high performance liquid chromatography with fluorescence detection. […] Quality control pools were prepared in dog plasma and quantified using the human calibration curve. A linear weighted (1/concentration squared) least squares regression analysis was used to quantify samples. This method was validated with a minimum quantifiable level of 1.00 ng/mL. […]
Removed the samples to be analyzed from the freezer and thawed. […] The filtrate was then analyzed by the method given below. […]

[4] = Plasma half-life of compound B in guinea pig; format: in vivo
Description: Therefore, follow-up studies were conducted in dogs because the half-life of compounds B in this species is more similar to the human half-life than is the half-life in the guinea pig.
The half life of compound B was determined by fitting the plasma concentrations and determining the elimination rate constant ke. The half-life is calculated as t½=0.693/ke.

Row | Route of removal from the circulation [2] | Change in elimination half-life with decreased creatinine clearance [2] | Levels of total compound B (free plus antibody bound) [3] | Half-life [4] | Compound | Effect of antiplatelet compound concentration on activated clotting time [1] | Effect on activated clotting times (GPIIb/IIIa) | Inhibition of platelet aggregation, measured ex vivo (platelet aggregation)
1 | almost exclusively by the kidney | appreciable increases | – | – | N=C(N)c1ccc(N2CC[C@H](NC(=O)NCCC(=O)O)C2=O)cc1 [compound D, 3-[[[[1-[4-(aminoiminomethyl)phenyl]-2-oxo-pyrrolidin-3S-yl]amino]carbonyl]amino]propanoic acid] | directly affect the activated clotting time | – | –
2 | – | – | – | – | C7E3: anti-GPIIb/IIIa antibody (Centocor) | – | increase of activated clotting times | –
3 | – | – | – | – | cyclic [D-2-aminobutyryl-N2-methyl-L-arginyl-glycyl-L-aspartyl-3-aminomethyl-benzoic acid] methanesulfonic acid salt [DMP728] | – | – | nearly complete inhibition
4 | almost exclusively by the kidney | appreciable increases | increased throughout the three infusions | short half-life | C#C[C@H](CC(=O)O)NC(=O)CCC(=O)Nc1ccc(C(=N)N)cc1 [compound B, 3S-[[4-[[4-(aminoiminomethyl)phenyl]amino]-1,4-dioxobutyl]amino]-4-pentynoic acid] | directly affect the activated clotting time | – | –
